What was measured:
[1] = target: T1, JAK2 (Homo sapiens, UniProt O60674); test: In vitro kinase activity experiment, JAK2; format: biochemical; conditions: for Kinase activity @ 500 nM (%) JAK2: inhibition rate of enzyme at 500 nM, measured by Eurofins
T1 construct: purchased Eurofins
How it was run: (§1)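 Radiometric filter-binding kinase assay: each kinase with its substrate, γ33P-ATP, 10 mM magnesium acetate and graded compound in 8 mM MOPS pH 7.0, 0.2 mM EDTA, 10 mM MnCl2. MgATP-started, 40 min at room temperature, stopped with 3% phosphate. Spotted on Filtermat A, washed, scintillation-counted.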

[2] = tested on: MV4-11 cells (FLT3-ITD+/+); test: Inhibition of cell proliferation by MTT experiment, MV4-11; format: cell-based, human; conditions: Homo sapiens, MV4-11; MTT, 72 h; read-out: IC50 value on cell proliferation inhibition, MV4-11 FLT3-ITD+/+
How it was run: (§2)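 MTT assay in MV4-11, MOLM-13 (FLT3-ITD) and SET-2 (JAK2 V617F) cells at 10,000–15,000 cells/well in IMDM with 10% FBS. Cells are exposed to compound for 72 h at 37 °C, then to MTT for 1–3 h. IC50 is fitted from inhibition rates across concentrations.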

[3] = target: T2, FLT3 (Homo sapiens, UniProt P36888); test: In vitro kinase activity experiment, FLT3; format: biochemical; conditions: for inhibition at 0.5 µM: 40 min, inhibition rate of enzyme at 500 nM, measured by Eurofins, read-out: Kinase activity @ 500 nM (%) FLT3
T2 construct: purchased Eurofins
T2 sequence (P36888 27-993): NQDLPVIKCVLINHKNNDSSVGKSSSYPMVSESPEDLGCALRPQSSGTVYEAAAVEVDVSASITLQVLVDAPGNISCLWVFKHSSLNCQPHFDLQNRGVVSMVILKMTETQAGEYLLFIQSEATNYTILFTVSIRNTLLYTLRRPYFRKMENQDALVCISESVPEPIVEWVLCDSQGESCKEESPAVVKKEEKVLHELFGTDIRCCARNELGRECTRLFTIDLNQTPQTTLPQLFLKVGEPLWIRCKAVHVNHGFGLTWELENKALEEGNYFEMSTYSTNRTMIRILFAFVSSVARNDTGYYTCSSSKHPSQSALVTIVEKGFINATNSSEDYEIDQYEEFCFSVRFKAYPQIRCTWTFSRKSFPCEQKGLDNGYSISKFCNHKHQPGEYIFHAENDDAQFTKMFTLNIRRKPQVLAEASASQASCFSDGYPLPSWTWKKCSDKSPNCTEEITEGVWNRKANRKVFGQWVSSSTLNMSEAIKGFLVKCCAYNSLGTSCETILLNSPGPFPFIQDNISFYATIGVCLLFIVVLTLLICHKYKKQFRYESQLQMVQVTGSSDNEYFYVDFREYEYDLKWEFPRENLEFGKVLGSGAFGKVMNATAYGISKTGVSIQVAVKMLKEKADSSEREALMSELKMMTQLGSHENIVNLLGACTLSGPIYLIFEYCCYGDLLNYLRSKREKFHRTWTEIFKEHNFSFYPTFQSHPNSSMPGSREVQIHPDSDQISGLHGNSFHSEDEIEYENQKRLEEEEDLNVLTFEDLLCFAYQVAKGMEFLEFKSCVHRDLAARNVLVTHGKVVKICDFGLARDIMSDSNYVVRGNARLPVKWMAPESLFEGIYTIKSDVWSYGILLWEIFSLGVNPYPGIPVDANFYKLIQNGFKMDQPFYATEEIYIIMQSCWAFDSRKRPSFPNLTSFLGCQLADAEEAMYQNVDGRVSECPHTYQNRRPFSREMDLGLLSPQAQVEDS
How it was run: as §1

[4] = target: T3, JAK1 (Homo sapiens, UniProt P23458); test: In vitro kinase activity experiment, JAK1; format: biochemical
T3 construct: purchased Eurofins
T3 sequence (P23458 whole entry): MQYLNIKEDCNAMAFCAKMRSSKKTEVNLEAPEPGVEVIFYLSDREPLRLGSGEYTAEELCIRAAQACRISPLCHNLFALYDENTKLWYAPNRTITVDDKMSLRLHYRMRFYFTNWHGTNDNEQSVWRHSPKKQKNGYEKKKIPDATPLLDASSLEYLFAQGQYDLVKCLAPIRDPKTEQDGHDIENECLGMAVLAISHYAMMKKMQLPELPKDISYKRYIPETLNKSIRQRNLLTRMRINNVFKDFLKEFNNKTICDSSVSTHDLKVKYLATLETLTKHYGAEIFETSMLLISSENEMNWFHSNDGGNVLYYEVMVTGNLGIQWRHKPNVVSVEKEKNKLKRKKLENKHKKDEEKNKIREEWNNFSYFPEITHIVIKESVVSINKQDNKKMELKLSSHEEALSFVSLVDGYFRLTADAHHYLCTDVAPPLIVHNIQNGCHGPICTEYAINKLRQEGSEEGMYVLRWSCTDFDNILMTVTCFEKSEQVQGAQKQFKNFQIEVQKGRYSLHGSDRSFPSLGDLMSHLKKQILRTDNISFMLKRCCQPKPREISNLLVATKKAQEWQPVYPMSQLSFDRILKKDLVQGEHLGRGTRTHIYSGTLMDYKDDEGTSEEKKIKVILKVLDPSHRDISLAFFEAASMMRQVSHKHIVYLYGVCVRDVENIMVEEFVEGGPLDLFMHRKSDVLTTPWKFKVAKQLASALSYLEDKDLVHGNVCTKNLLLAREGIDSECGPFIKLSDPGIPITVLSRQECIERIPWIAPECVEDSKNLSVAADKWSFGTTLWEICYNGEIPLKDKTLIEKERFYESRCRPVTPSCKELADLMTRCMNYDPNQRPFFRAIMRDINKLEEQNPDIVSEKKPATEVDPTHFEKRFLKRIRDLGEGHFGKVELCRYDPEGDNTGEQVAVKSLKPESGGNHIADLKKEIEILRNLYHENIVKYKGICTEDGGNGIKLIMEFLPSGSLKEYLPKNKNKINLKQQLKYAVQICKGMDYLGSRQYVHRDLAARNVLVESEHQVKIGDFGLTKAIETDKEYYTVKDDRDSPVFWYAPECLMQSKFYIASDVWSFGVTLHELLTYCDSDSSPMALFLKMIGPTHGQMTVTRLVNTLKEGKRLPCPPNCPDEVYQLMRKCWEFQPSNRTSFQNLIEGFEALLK
Description: Buffer solution ([…], pH 7.0, 0.2 mm EDTA, 10 mM mncl2), kinase to be tested, substrate of kinase to be tested, 10 mM magnesium acetate and γ33P-ATP solution, and compounds with different concentrations were added to a reaction tube in turn, then MgATP was added to initiate the enzyme reaction process, and incubated at room temperature for 40 min. Then, the reaction was terminated with 5 μl of […], and 10 μl of the reaction solution was titrated onto the Filtermat A membrane, washed with 75 mM phosphate solution for three times, each time for 5 min., and then washed with methanol once. Finally, the Filtermat A membrane was dried and the scintillation count was carried out.

[5] = tested on: MOLM-13 cells (FLT3-ITD-/+); test: Inhibition of cell proliferation by MTT experiment, MOLM-13; format: cell-based, human; conditions: Homo sapiens, MOLM-13; MTT, 72 h; read-out: IC50 value on cell proliferation inhibition, MOLM-13 FLT3-ITD-/+
How it was run: as §2

[6] = tested on: SET-2 cells (JAK2 V617F); test: Inhibition of cell proliferation by MTT experiment, SET-2; format: cell-based; conditions: Homo sapiens, SET-2; MTT, 72 h; read-out: IC50 value on cell proliferation inhibition, SET-2 (V617F)
How it was run: as §2

T1 sequence (O60674 whole entry): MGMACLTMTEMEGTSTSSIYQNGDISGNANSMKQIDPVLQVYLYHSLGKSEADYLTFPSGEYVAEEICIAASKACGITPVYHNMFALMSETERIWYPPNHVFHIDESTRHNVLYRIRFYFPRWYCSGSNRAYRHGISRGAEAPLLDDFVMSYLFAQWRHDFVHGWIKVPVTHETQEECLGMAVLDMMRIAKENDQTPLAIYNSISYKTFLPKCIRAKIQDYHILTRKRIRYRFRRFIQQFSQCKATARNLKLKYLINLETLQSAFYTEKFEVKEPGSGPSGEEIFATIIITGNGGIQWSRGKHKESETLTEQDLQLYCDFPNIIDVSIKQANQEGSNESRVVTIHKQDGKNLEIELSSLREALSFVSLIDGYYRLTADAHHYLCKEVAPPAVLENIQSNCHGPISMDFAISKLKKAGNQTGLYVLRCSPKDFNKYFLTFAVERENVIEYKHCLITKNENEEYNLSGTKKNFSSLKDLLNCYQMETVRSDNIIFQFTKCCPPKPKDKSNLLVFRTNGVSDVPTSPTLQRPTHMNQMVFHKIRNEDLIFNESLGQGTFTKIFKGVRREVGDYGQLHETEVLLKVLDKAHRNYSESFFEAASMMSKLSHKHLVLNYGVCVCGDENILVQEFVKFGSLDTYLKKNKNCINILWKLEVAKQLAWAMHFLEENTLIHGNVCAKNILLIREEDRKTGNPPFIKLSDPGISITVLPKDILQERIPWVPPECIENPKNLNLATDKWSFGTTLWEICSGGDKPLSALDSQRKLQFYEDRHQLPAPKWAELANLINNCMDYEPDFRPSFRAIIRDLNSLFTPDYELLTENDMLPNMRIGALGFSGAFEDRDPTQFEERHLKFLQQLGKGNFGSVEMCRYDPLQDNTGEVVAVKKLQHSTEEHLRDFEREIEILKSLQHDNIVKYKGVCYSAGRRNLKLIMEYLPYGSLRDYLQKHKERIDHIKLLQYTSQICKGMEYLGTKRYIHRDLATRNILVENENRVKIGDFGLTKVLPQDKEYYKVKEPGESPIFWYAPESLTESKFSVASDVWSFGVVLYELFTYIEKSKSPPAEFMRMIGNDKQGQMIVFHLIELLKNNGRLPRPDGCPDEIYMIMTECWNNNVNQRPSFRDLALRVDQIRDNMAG

IC50 [1] [nM] | Kinase activity @ 500 nM (%) JAK2 [1] [%] | IC50 [2] [nM] | IC50 [3] [nM] | inhibition at 0.5 µM [3] [%] | IC50 [4] [nM] | IC50 [5] [nM] | Compound | IC50 [6] [nM]
2 | 93 | 10 to 100 | 9 | 72 | 58 | 100 to 1000 | Cc1cnc(Nc2ccc(N3CCC(N(C)C)CC3)c(F)c2)nc1-c1cnn(C(C)C)c1 [CLJ-38, 5-methyl-N-(3-fluoro-4-(4-dimethylaminopiperidine-1-yl)phenyl)-4-(1-isopropyl-1H-pyrazole-4-yl) pyrimidine-2-amine] | 100 to 1000
– | 20 | > 1000 | – | 12 | – | > 1000 | Cc1cnc(Nc2ccc(CCNC(=O)/C=C/C(=O)c3ccccc3)cc2)nc1-c1cnn(C(C)C)c1 [CLJ-82, N-(4-((4-(1-isopropyl-1H-pyrazole-4-yl)-5-methylpyrimidine-2-yl)amino)phenethyl)-3-benzoyl acrylamide] | > 1000
– | 88 | 10 to 100 | – | 89 | – | 10 to 100 | Cc1cnc(Nc2ccc(CNC(=O)CCCN(C)C)cc2)nc1-c1cnn(C(C)C)c1 [CLJ-83, N-(4-((4-(1-isopropyl-1H-pyrazole-4-yl)-5-methylpyrimidine-2-yl)amino)benzyl)-4-dimethylaminobutyramide] | 100 to 1000
– | 79 | 100 to 1000 | – | 78 | – | 100 to 1000 | Cc1cnc(Nc2ccc(CCNC(=O)CCCN(C)C)cc2)nc1-c1cnn(C(C)C)c1 [CLJ-84, N-(4-((4-(1-isopropyl-1H-pyrazole-4-yl)-5-methylpyrimidine-2-yl)amino)phenethyl)-4-dimethylaminobutyramide] | 100 to 1000
– | 56 | 100 to 1000 | – | 67 | – | > 1000 | Cc1cnc(Nc2ccc(CNC(=O)CCl)cc2)nc1-c1cnn(C(C)C)c1 [CLJ-85, N-(4-((4-(1-isopropyl-1H-pyrazole-4-yl)-5-methylpyrimidine-2-yl)amino)benzyl)-2-chloroacetamide] | > 1000
– | 37 | 100 to 1000 | – | 45 | – | > 1000 | Cc1cnc(Nc2ccc(CCNC(=O)CCl)cc2)nc1-c1cnn(C(C)C)c1 [CLJ-86, N-(4-((4-(1-isopropyl-1H-pyrazole-4-yl)-5-methylpyrimidine-2-yl)amino)phenethyl)-2-chloroacetamide] | > 1000
– | 39 | > 1000 | – | 45 | – | > 1000 | Cc1cnc(Nc2ccc(CNC(=O)CCCl)cc2)nc1-c1cnn(C(C)C)c1 [CLJ-87, N-(4-((4-(1-isopropyl-1H-pyrazole-4-yl)-5-methylpyrimidine-2-yl)amino)benzyl)-3-chloropropanamide] | > 1000
– | 20 | > 1000 | – | 32 | – | > 1000 | Cc1cnc(Nc2ccc(CCNC(=O)CCCl)cc2)nc1-c1cnn(C(C)C)c1 [CLJ-88, N-(4-((4-(1-isopropyl-1H-pyrazole-4-yl)-5-methylpyrimidine-2-yl)amino)phenethyl)-3-chloropropanamide] | > 1000
– | 99 | 100 to 1000 | – | 47 | – | > 1000 | C=CS(=O)(=O)NCc1ccc(Nc2ncc(C)c(-c3cnn(C(C)C)c3)n2)cc1 [CLJ-89] | 10 to 100
– | 97 | 10 to 100 | – | 95 | – | 10 to 100 | C=CS(=O)(=O)NCCc1ccc(Nc2ncc(C)c(-c3cnn(C(C)C)c3)n2)cc1 [CLJ-90] | 100 to 1000
– | 104 | 10 to 100 | – | 98 | – | 10 to 100 | CCS(=O)(=O)c1nn(C(C)C)cc1-c1nc(Nc2ccc(N3CCC(N(C)CCO)CC3)c(F)c2)ncc1C [CLJ-92, 5-methyl-N-(3-fluoro-4-(4-N-hydroxyethyl-4-N-methylaminopiperidine-1-yl)phenyl)-4-(1-isopropyl-3-ethylsulfonyl-1H-pyrazole-4-yl) pyrimidine-2-amine] | 100 to 1000
– | 100 | 10 to 100 | – | 97 | – | 10 to 100 | Cc1cnc(Nc2ccc(NC(=O)[C@H]3CCCN3)c(F)c2)nc1-c1cnn(C(C)C)c1 [CLJ-93, (R)-2-((2-fluoro-4-((4-(1-isopropyl-1H-pyrazole-4-yl)-5-methylpyrimidine-2-yl)amino)phenyl)carbamoyl) pyrrolidine] | 100 to 1000
– | 66 | 100 to 1000 | – | 67 | – | 100 to 1000 | Cc1cnc(Nc2ccc(NS(=O)(=O)c3ccc4c(c3)CC(=O)N4)c(F)c2)nc1-c1cnn(C(C)C)c1 [CLJ-95, N-(2-fluoro-4-((4-(1-isopropyl-1H-pyrazole-4-yl)-5-methylpyrimidine-2-yl)amino)phenyl)-2-oxoindoline-5-sulfonamide] | 100 to 1000
– | 73 | 100 to 1000 | – | 56 | – | 100 to 1000 | Cc1cnc(Nc2ccc(NC(=O)[C@H]3CCCN3CC3CC3)c(F)c2)nc1-c1cnn(C(C)C)c1 [CLJ-96, (R)-1-(cyclopropylmethyl)-N-(2-fluoro-4-((4-(1-isopropyl-1H-pyrazole-4-yl)-5-methylpyrimidine-2-yl)amino)phenyl) pyrrolidine-2-carboxamide] | 100 to 1000
– | 99 | 10 to 100 | – | 101 | – | 10 to 100 | Cc1cnc(Nc2ccc(NC(=O)[C@H]3C[C@H](F)CN3)c(F)c2)nc1-c1cnn(C(C)C)c1 [CLJ-97, (2R,4S)-4-fluoro-N-(2-fluoro-4-((4-(1-isopropyl-1H-pyrazole-4-yl)-5-methylpyrimidine-2-yl)amino)phenyl) pyrrolidine-2-carboxamide] | 100 to 1000
– | 97 | 10 to 100 | – | 95 | – | 10 to 100 | Cc1cnc(Nc2ccc(NC(=O)CN3CCS(=O)(=O)CC3)c(F)c2)nc1-c1cnn(C(C)C)c1 [CLJ-98, 2-(1,1-dioxthiomorpholine)-N-(2-fluoro-4-((4-(1-isopropyl-1H-pyrazol-4-yl)-5-methylpyrimidine-2-yl)amino)phenyl) acetamide] | 100 to 1000
– | 100 | 10 to 100 | – | 97 | – | 10 to 100 | Cc1cnc(Nc2ccc(S(=O)(=O)NC3CC3)cc2)nc1-c1cnn(C(C)C)c1 [CLJ-99, N-cyclopropyl-4-((4-(1-isopropyl-1H-pyrazol-4-yl)-5-methylpyrimidine-2-yl)amino) benzenesulfonamide] | 100 to 1000
